Source: paper PMC2652249 (Biochemistry, 2008)
Values joined by “and” are separate entries in the source; they are usually repeats but may differ in a detail not shown here. Equal entries are not always repeated. “Also recorded” adds a separate entry of the source. Where two headings read alike, the source gives them in different places.

Assays:
[1] = target: T1, DNA polymerase X (Pol X) (African swine fever virus, UniProt P42494); conditions: cited from earlier work
[2] = target: T1, DNA polymerase X (Pol X); experiment: biochemical; type: biochemical
[3] = target: T1, DNA polymerase X (Pol X)

T1 sequence (P42494 whole entry, looked up): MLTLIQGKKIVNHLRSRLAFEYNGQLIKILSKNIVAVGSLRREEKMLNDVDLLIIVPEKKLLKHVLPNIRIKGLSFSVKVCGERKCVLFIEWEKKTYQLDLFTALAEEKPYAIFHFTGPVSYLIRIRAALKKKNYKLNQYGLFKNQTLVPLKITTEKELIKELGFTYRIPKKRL

Compound	turnover rate slower than the rate of correct dG:dCTP incorporation [1] [fold]	Kd ([1]; read-out: KD,app) [µM]	global fitting Vmax [2]	incorporation under the steady-state conditions [2]	Ki ([2]; global fitting KI)	Km ([2]; read-out: global fitting Km)	k1 of fluorescence change (double-exponential) [3] [s⁻¹]	k2 of fluorescence change (double-exponential) [3] [s⁻¹]	inhibition of Pol X by PPi [2]	Km [2]	Vmax [2]	single-exponential rate k of fluorescence change [3]
Nc1ncnc2c1ncn2[C@H]1C[C@H](O)[C@@H](COP(=O)(O)OP(=O)(O)OP(=O)(O)O)O1 [dATP]	430	80	1.51 nmol/min	no detectable incorporation	48 µM and 150 µM	13 µM	5.92 ± 0.21	1.17 ± 0.02	–	–	–	–
O=P(O)(O)OP(=O)(O)O [PPi, Pyrophosphate]	–	–	–	–	–	–	–	–	not inhibited noticeably; also recorded: modest inhibition	–	–	–
Nc1ccn([C@H]2C[C@H](O)[C@@H](COP(=O)(O)OP(=O)(O)OP(=O)(O)O)O2)c(=O)n1 [dCTP]	–	–	0.51 nmol/min and 0.47 nmol/min	–	–	35 µM and 41 µM	–	–	–	32 µM and 45 µM	0.52 ± 0.02 nmol/min and 0.49 ± 0.02 nmol/min	1.64 s⁻¹ and 1.64 ± 0.01 s⁻¹
